The values below come from US9895370B2, “Pharmaceutical composition for preventing or treating of cirrhosis of liver comprising G protein coupled receptor 119 ligand as an active ingredient” (DONGGUK UNIVERSITY INDUSTRY—ACADEMIC COOPERATION FOUNDATION, priority 2015, dated 2018).

One assay has as its system Smad2/Smad3. Briefly: TGFβ1-elevated Smad2/Smad3 phosphorylation and nuclear translocation in LX-2. The class given is cell-based, human. On the procedure: A human HSC line (LX-2, Milipore, U.S.A.) was plated in a 6-well plate, and grown to confluency in DMEM supplemented with 1% penicillin-streptomycin (Hyclone, U.S.A.) and 2% fetal bovine serum (Hyclone, U.S.A.) at 37° C. in a 5% CO2 incubator. For a further experiment, the confluent HSC line was incubated in an FBS-free medium, instead of the 2% FBS-added medium.
A whole cell lysate and a nuclear fraction were separated according to a conventional method. More specifically, the whole cell lysate was obtained by lysing cells washed with phosphate buffered saline (PBS) with a lysis buffer [10 mM Tris-HCl (pH 7.1), 100 mM NaCl, 1 mM EDTA, 10% glycerol, 0.5% Triton X-100, 0.5% Nonidet P-40, 1 mM dithiothreitol and 0.5 mM phenylmethylsulfonyl fluoride (PMSF)] at 4° C. for 30 minutes, and centrifuging the resulting solution at 14,000×g for 15 minutes to obtain a supernatant. To obtain the nuclear fraction, a low-osmotic pressure buffer containing 10 mM HEPES (pH 7.9), 10 mM KCl, 0.1 mM EDTA, 1 mM DTT and 0.5 mM PMSF was added and reacted at 4° C. for 10 minutes. Following addition of 10% Nonidet P-40 and vortexing for 10 seconds, the supernatant obtained by centrifugation at 13,000 rpm for 3 minutes was removed, and the remaining precipitate was washed three times with a low-osmotic pressure buffer. The precipitate was mixed with a high-osmotic pressure buffer [20 mM HEPES (pH 7.9), 400 mM NaCl, 1 mM EDTA, 1 mM DTT and 1 mM PMSF] and vortexed again at 4° C. for 10 minutes to induce a reaction for 20 minutes. Following centrifugation at 13,000 rpm for 10 minutes, a supernatant was obtained to be used as a nuclear fraction. A protein concentration was quantified using a protein quantify kit of PRO-MEASURE™ protein measurement solution (iNtRON Biotechnology, South Korea) according to the Bradford assay.
Sodium dodecylsulfate-polyacrylamide gel electrophoresis (SDS-PAGE) was performed using a gel electrophoresis device (Mighty Small SE 250, Hoefer Scientific Instruments, San Francisco) according to the method established by the inventors. […]

The subject of assay [1] is C57BL/6 mice with liver fibrosis induced by carbon tetrachloride. Put plainly: carbon tetrachloride (CCl4)-induced liver fibrosis animal model. The class given is in vivo, mouse. Particulars: for ALT / AST / D-BIL / T-BIL: blood. On the procedure:
6-week-old male C57BL/6J mice (Joongang laboratory animal, Seoul) were acclimated in a laboratory environment for 1 week with solid feed, and randomly arranged in control groups and experimental groups according to randomized block design. Then, carbon tetrachloride (1 ml/kg) was administered to 6-week-old male C57BL/6 mice (Joongang laboratory animal, Seoul) twice a week for three weeks to induce liver fibrosis, and a GPR119 ligand (10 mg/kg) suspended in 40% PEG400 was orally administered thereto once a day for five days per week. For liver fibrosis models induced by dimethylnitrosamine (DMN), DMN (10 mg/kg) was administered to mice three times a week to induce liver fibrosis. As the control group, a vehicle-treated group was used. After termination of the experiment, the laboratory animals were fasted for 12 hours or more, and anesthetized with Zoletil to obtain blood and the liver, and the liver was washed with 0.1 M phosphate buffered saline (PBS; pH 7.4) and weighed. The blood obtained from the abdominal aorta was centrifuged in an SST tube at 3000×RPM for 20 minutes to isolate the serum.
For the above-mentioned laboratory animals, serum alanine transaminase (ALT), aspartate transaminase (AST), total bilirubin (T-BIL) and direct bilirubin (D-BIL) were analyzed using an automated hematology analyzer, Spectrum [(Abbott Laboratories, Abbott Park, Ill.)].
The liver samples obtained as described above were prepared into sections, and the tissue section was fixed with 10% buffered neutral formalin and embedded in paraffin. Afterward, the resulting section was sliced to a 4-μm thickness, and put on a slide to fix a specimen, stained with sirius red, and observed using an optical microscope.
A predetermined amount of liver tissue was homogenized in a mortar with liquid nitrogen and a lysis buffer, and the resulting tissue solution was transferred into a new tube and then vortexed. The tissue solution was centrifuged at 14,000 rpm and 4° C. for 20 minutes, and the intermediate layer was extracted to quantify a protein by a Bradford method. 30 μg of proteins were analyzed by electrophoresis using an SDS polyacrylamide gel, and the change of protein expression was analyzed by western blot.
To examine improvement of liver fibrosis by the GPR119 ligand, in an animal model having liver fibrosis induced by carbon tetrachloride (CCl4), an effect of the GPR119 ligand on inhibiting liver fibrosis was observed.
First, 1 ml/kg of carbon tetrachloride was intraperitoneally administered twice a week, and also orally administered with the GPR119 ligand (MBX-2982) at doses of 20 and 40 mg/kg, respectively, once a day for 5 days a week. Three weeks later, liver tissue was extracted, subjected to sirius red staining for confirming collagen production and immunohistochemical staining for confirming expression of a HSC activation marker, that is, α-SMA, and then compared with a control group and a carbon tetrachloride only-treated group.

For assay [2], the system named is cAMP/PKA (cyclic AMP/Protein kinase A). Put plainly: activation of GPR119 signaling pathway cAMP/PKA, with PKA inhibitor H-89. Particulars: FIG. 4a. The class given is cell-based. On the procedure:
First, when a PKA inhibitor H-89 was treated, a change in action of the GPR119 ligand was examined.

Where [3] appears, read: 40 mg/kg oral once a day 5 days a week, 3 weeks, FIG. 3a.
[4] abbreviates: 40 mg/kg, western blot, FIG. 3c.

`CCc1cnc(N2CCC(c3nc(COc4ccc(-n5cnnn5)cc4)cs3)CC2)nc1` [MBX-2982, 4-((4-(1H-tetrazol-1-yl)phenoxy)methyl)-2-(1-(5-ethylpyrimidin-2-yl)piperidin-4-yl)thiazole]: in the assay with Smad2/Smad3 (LX-2, FIG. 2e), the “nuclear translocation of Smad2/Smad3 elevated by TGFβ1” value is on record as “inhibited” and the “phosphorylation of Smad2/Smad3 elevated by TGFβ1” value is reported as “inhibited”. For the same compound, in the assay on Smad2/Smad3 (compound C / DN-AMPK, FIG. 4d), the “inhibitory action on phosphorylation of Smad3 activated by TGFβ1, under AMPK inhibition” value is recorded as “partially recovered by AMPK inhibition, but not completely offset”. Further, in assay [1] (setting [3]), the “collagen production (sirius red staining) in liver tissue” value was “significantly reduced” and the “α-SMA expression (immunohistochemical staining) in liver tissue” value is “significantly reduced”. Also, the amount of hydroxyproline entry in assay [1] (40 mg/kg oral, FIG. 3b) is “statistically significantly reduced”. For the same compound, in assay [1] (setting [4]), the “expression of TGFβ protein in liver tissue” value was “statistically significantly inhibited”, the “expression of collagen I protein in liver tissue” value is “statistically significantly inhibited” and the “expression of α-SMA protein in liver tissue” value is “statistically significantly inhibited”. In assay [1] (CCl4 + MBX 20 (20 mg/kg oral)), the ALT was 38.55 U/L, the AST was 94.06 U/L, the D-BIL was 0.11 mg/dL and the T-BIL was determined as 0.20 mg/dL. In assay [1] (CCl4 + MBX 40 (40 mg/kg oral)), the ALT came to 32.06 U/L, the AST is given as 68.11 U/L, the D-BIL was 0.12 mg/dL and the T-BIL stood at 0.23 mg/dL. Further, the cAMP activation result in assay [2] is given as “observed”. In assay [2] (with H-89), the “action on inhibiting collagen I and TGFβ expression when PKA inhibitor H-89 was treated” value was “not offset”.
